Experimental data from ChEMBL document CHEMBL1155943, “Design of a sialylglycopolymer with a chitosan backbone having efficient inhibitory activity against influenza virus infection” (J Med Chem, 2008).
≈ marks a conversion by molar mass, not a printed value.

Key:
Influenza B virus [1] = test: Antiviral activity against Influenza virus (B/Shanghai/361/2002) infected in MDCK cells; type: functional, organism-based; settings: B/Shanghai/361/2002, MDCK
Influenza A virus H3N2 [2] = test: Antiviral activity against Influenza virus (A/Panama/2007/99 (H3N2)) infected in MDCK cells; type: functional, organism-based, Influenza A virus (A/Panama/2007/1999(H3N2))
Influenza B virus [3] = test: Antiviral activity against Influenza virus (B/Shanghai/361/2002) infected in MDCK cells assessed as sialic acid concentration; type: functional, organism-based; settings: B/Shanghai/361/2002, MDCK
Influenza A virus H3N2 [4] = test: Antiviral activity against Influenza virus (A/Panama/2007/99 (H3N2)) infected in MDCK cells assessed as sialic acid concentration; type: functional, organism-based, Influenza A virus (A/Panama/2007/1999(H3N2))
[5] = system: Influenza A virus (A/Puerto Rico/8/1934(H1N1)); test: Antiviral activity against human influenza virus (A/New Caledonia/20/1999 (H1N1)) infected in MDCK cells; type: functional, organism-based, Influenza A virus (A/New Caledonia/20/1999(H1N1))
[6] = system: Influenza A virus (A/Puerto Rico/8/1934(H1N1)); test: Antiviral activity against human influenza virus (A/New Caledonia/20/1999 (H1N1)) infected in MDCK cells assessed as sialic acid concentration; type: functional, organism-based, Influenza A virus (A/New Caledonia/20/1999(H1N1))

CC(=O)N[C@H]1[C@H]([C@H](O)[C@H](O)CO)O[C@](OC[C@H]2O[C@@H](O[C@@H]([C@H](O)[C@H](C=O)NC(C)=O)[C@H](O)CO)[C@H](O)[C@@H](O)[C@H]2O)(C(=O)O)C[C@@H]1O
IC50 (Influenza B virus [1]): 10000 µg/mL (≈ 14.8 mM)
IC50 (Influenza A virus H3N2 [2]): 3000 µg/mL (≈ 4.45 mM)
IC50 (Influenza B virus [3]): 14.8 mM
IC50 (Influenza A virus H3N2 [4]): 4 mM
IC50 [5]: 2000 µg/mL (≈ 2.96 mM)
IC50 [6]: 3 mM
